Reference: patent US10710988B2, “Piperazine derivative” (Astellas Pharma Inc., priority 2016, dated 2020)
pEC50: −log10 of the molar value. Like-named read-outs stand apart in the source and are kept apart here.

Key:
human MC4 receptor = molecular target: T1, human MC4 receptor (Homo sapiens, UniProt P32245); assay: Human MC4 receptor activation, cAMP production in cells transiently expressing the receptor; format: cell-based; details: FreeStyle 293-F cells expressing human MC4 receptor, α-MSH maximum = 100%
T1 construct: expressed in transfected cells; host or cells: FreeStyle 293-F cells (transient, electroporation)
T1 sequence (P32245 whole entry): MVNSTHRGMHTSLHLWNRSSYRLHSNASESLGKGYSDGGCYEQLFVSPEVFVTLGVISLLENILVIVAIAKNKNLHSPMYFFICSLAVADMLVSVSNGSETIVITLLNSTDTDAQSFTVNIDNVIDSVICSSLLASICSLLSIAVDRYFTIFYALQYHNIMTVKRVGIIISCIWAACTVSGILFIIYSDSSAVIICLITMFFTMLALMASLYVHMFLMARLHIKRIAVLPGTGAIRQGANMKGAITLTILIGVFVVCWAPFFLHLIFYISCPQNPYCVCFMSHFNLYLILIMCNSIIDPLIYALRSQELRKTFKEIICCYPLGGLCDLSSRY
Source text: (§1) (1) Construction of Human MC Receptor-Expressing Vector
(§2) A human MC4 receptor gene (GenBank Accession No.: NM_005912.2), a human MC1 receptor gene (GenBank Accession No.: NM_002386.3), or a human MC3 receptor gene (GenBank Accession No.: NM_019888.3) was introduced into an expression vector pcDNA™ 3.1N/V5-His TOPO (registered trademark) (Thermo Fisher Scientific Inc).
(§3) (2) Construction of Cells Transiently Expressing Human MC Receptor
(§4) An expression vector for a human MC4, MC1, or MC3 receptor was introduced into FreeStyle™ 293-F cells (Thermo Fisher Scientific Inc., product number: R790-07). For the introduction, electroporation was employed. That is, 1×10^7 FreeStyle™ 293-F cells were suspended in 80 μL of an Electroporation Buffer (Thermo Fisher Scientific Inc., product number: B201-100), and 20 μg of the expression vector was added thereto. The resultant was put into a cuvette (OC-100 Processing Assembly, MaxCyte, Inc.) and electroporated with MaxCyte STX (registered trademark) (MaxCyte, Inc.). The cells were cultured for a day, suspended in a Cell Banker (registered trademark) 1 (TAKARA BIO INC. or JUJI FIELD Inc., product number: BLC-1), and stored frozen until they were used.
(§5) (3) Measurement of Amount of cAMP Production
(§6) Measurement was carried out by using a LANCE (registered trademark) Ultra cAMP Kit (PerkinElmer, Inc.) in accordance with the attached instructions. That is, after dissolution in DMSO, the test compound (a final concentration of 1 pM to 30 μM) diluted with an assay buffer (Hank's balanced salt solution, 5 mM 4-(2-hydroxyethyl)-1-piperazineethanesulfonic acid (HEPES), 0.5 mM 3-isobutyl-1-methylxanthine (IBMX), 0.1% bovine serum albumin, pH 7.4), or α-MSH (Bachem Inc., a final concentration of 1 pM to 30 μM) was added to OptiPlate-384 (PerkinElmer, Inc.). Furthermore, the suspension of the cells transiently expressing the human MC4, MC1, or MC3 receptor prepared using the assay buffer was added thereto at 1,000 cells/well, and then left to stand at room temperature for about 1 hour. Thereafter, an Eu-cAMP tracer solution and an ULight™-anti-cAMP solution were added thereto, and then the resulting solution was left to stand at room temperature for about 1 hour. The amount of cAMP was calculated using EnVision (registered trademark) (PerkinElmer Inc.).
(§7) For the agonistic activity, the efficacy (EC50 (μM)) was calculated by a non-linear regression method with a Sigmoid-Emax model, by defining the maximum reaction using α-MSH as 100% and the reaction using the vehicle alone as 0%, respectively.

human MC3 receptor = molecular target: T2, human MC3 receptor (Homo sapiens, UniProt P41968); assay: Human MC3 receptor activation, cAMP production in cells transiently expressing the receptor; format: cell-based; details: FreeStyle 293-F cells expressing human MC3 receptor, α-MSH maximum = 100%
T2 construct: expressed in transfected cells; host or cells: FreeStyle 293-F cells (transient, electroporation)
T2 sequence (P41968 whole entry): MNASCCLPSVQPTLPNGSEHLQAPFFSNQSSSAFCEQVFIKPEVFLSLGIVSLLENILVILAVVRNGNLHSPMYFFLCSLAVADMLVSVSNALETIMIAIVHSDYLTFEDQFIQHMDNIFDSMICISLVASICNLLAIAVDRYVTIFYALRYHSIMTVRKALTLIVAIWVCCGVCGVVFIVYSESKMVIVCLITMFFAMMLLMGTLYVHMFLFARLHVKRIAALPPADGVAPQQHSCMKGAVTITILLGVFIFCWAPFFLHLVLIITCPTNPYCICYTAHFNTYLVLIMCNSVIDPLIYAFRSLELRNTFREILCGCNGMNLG
Source text: as §1, §2, §3, §4, §5, §6, §7

[1] = tested on: phenylephrine-induced urethral pressure increase; assay: Effect on rat urethral pressure (phenylephrine-induced urethral pressure increase); format: in vivo; details: read-out: ID40
Procedure: The present Test Example was performed by partially modifying the technique reported as a testing system for evaluating a urethral resistance-reducing action (European Journal of Pharmacology, 679, 127-131 (2012)). Male Wistar rats (Charles River Laboratories Japan, Inc.) were anesthetized with urethane (1.2 g/kg ip), and immobilized in a supine position. The midline incision was performed in the lower abdominal portion such that the bladder was exposed. The bladder apex was incised, and from the incision site, a microchip pressure transducer catheter (3.5 Fr, Millar, Inc) was inserted and implanted into the inside of the urethra. In addition, a cannula for drug administration was implanted into the femoral vein. After the urethral pressure was stabilized, phenylephrine hydrochloride (Sigma-Aldrich Co. LLC., 30 μg/kg) was intravenously administered to induce an increase in the urethral pressure. At an interval of about 30 minutes, the above operation was repeated twice or more so as to confirm the stability of the phenylephrine hydrochloride-induced urethral pressure increasing reaction. Then, a test compound (dissolved in 20% dimethyl acetamide, 10% Cremophor (registered trademark), and 70% physiological saline) was intravenously administered, and after 5 minutes, phenylephrine hydrochloride was administered. The procedure of the administration of the test compound and the administration of phenylephrine hydrochloride was repeated at an interval of about 30 minutes, and 3 to 5 doses of the test compound was evaluated (the test compound was administered at increasing doses). The obtained data was introduced into a personal computer through PowerLab (registered trademark) (ADInstruments, Inc.) and analyzed using LabChart (registered trademark) (ADInstruments, Inc.). For the evaluation, the value (AUC value, mmHg-s) of the area under the urethral pressure for one minute before and after administration of phenylephrine hydrochloride was determined to calculate the difference (ΔAUC value) between the AUC value before the administration of phenylephrine hydrochloride and the AUC value after the administration of phenylephrine hydrochloride. The ΔAUC value obtained before administering the test compound was regarded as being 100%, and based on this, the ratio (reaction rate) of the ΔAUC value of the test compound at each dose was calculated. The dose at which the obtained reaction rate became 60% (40% as an inhibition rate) was defined as ID40, and the ID40 values of the test compounds were calculated by non-linear regression.

human MC1 receptor = molecular target: T3, human MC1 receptor (Homo sapiens, UniProt Q01726); assay: Human MC1 receptor activation, cAMP production in cells transiently expressing the receptor; format: cell-based; details: FreeStyle 293-F cells expressing human MC1 receptor, α-MSH maximum = 100%
T3 construct: expressed in transfected cells; host or cells: FreeStyle 293-F cells (transient, electroporation)
T3 sequence (Q01726 whole entry): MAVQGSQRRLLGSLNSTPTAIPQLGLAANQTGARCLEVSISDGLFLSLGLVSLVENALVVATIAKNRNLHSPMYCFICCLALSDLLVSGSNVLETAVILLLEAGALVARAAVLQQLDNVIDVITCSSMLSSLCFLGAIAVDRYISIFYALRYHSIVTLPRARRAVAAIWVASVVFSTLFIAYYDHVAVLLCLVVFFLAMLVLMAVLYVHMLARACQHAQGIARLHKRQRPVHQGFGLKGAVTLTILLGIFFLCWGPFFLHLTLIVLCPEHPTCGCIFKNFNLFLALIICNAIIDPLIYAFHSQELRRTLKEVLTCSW
Source text: as §1, §2, §3, §4, §5, §6, §7

rat MC4 receptor = molecular target: T4, rat MC4 receptor (Rattus norvegicus, UniProt P70596); assay: Rat MC4 receptor activation, cAMP production in cells transiently expressing the receptor; format: cell-based; details: FreeStyle 293-F cells expressing rat MC4 receptor, α-MSH maximum = 100%
T4 construct: expressed in transfected cells; host or cells: FreeStyle 293-F cells (transient, electroporation)
T4 sequence (P70596 whole entry): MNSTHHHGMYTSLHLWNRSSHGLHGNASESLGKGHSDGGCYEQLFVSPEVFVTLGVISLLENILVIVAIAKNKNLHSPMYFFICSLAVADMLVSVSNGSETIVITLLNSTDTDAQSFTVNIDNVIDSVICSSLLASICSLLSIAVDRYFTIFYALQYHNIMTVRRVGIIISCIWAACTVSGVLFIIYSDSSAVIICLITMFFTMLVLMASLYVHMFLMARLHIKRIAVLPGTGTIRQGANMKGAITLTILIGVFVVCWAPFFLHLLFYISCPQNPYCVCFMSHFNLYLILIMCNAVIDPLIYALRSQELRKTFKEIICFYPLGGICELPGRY
Source text: (1) Construction of Rat MC4 Receptor-Expressing Vector
A rat MC4 receptor gene (GenBank Accession No.: NM_013099.3) was introduced into an expression vector pcDNA™ 3.1N/V5-His TOPO (registered trademark) (Thermo Fisher Scientific Inc.).
(2) Construction of Cells Transiently Expressing Rat MC4 Receptor
as §4, with “rat MC4” for “human MC4, MC1, or MC3”, “Inc.).” for “Inc., product number: R790-07).”, “electroporation buffer” for “Electroporation Buffer”, “Inc.),” for “Inc., product number: B201-100),”, “Inc.),” for “Inc., product number: BLC-1),”
as §5
Measurement was carried out in accordance with the attached instructions, using a LANCE (registered trademark) Ultra cAMP Kit (PerkinElmer, Inc.). That is, after dissolution in DMSO, the test compound (a final concentration of 1 pM to 30 μM) diluted with an assay buffer (Hank's balanced salt solution, 5 mM HEPES, 0.5 mM IBMX, 0.1% bovine serum albumin, pH 7.4), or α-MSH (Bachem Inc., a final concentration of 1 pM to 30 μM) was added to OptiPlate-384 (PerkinElmer, Inc.). Furthermore, the suspension of the cells transiently expressing the rat MC receptor that was prepared using the assay buffer was added thereto at 1,000 cells/well, and then left to stand at room temperature for about 1 hour. Thereafter, an Eu-cAMP tracer solution and an ULight™-anti-cAMP solution were added thereto, and the resulting solution was left to stand at room temperature for about 1 hour. The amount of cAMP was calculated using EnVision (registered trademark) (PerkinElmer Inc).
For the agonistic activity, an efficacy (EC50 (μM)) was calculated by a non-linear regression method with a Sigmoid-Emax model, by defining the maximum reaction using α-MSH as 100% and the reaction using a vehicle alone as 0%, respectively.

[2] = male Wistar rats, urethane anesthesia, intravenous, dose giving 40% inhibition of phenylephrine-induced urethral pressure ΔAUC

SMILES	pEC50 (human MC4 receptor)	pEC50 (human MC3 receptor)	ED40 ([1]; iv) [mg/kg]	pEC50 (human MC1 receptor)	ED40 [1, 2] [mg/kg]	pEC50 (rat MC4 receptor)
CC(=O)N[C@@H](CC(C)(C)C)C(=O)N1C[C@H](C)N(C(=O)[C@@H]2CN(C3CCOCC3)C[C@H]2c2ccc(Cl)cc2F)C[C@H]1C [Example 3]	8.10	6.51	8.9	5.24		
CC(=O)N[C@@H](CC1CCCC1)C(=O)N1CCN(C(=O)[C@@H]2CN(C(C)(C)C)C[C@H]2c2ccc(F)cc2F)[C@@H](C)C1.Cl [Example 16, N-((2S)-1-[(3S)-4-{[(3S,4R)-1-tert-butyl-4-(2,4-difluorophenyl)pyrrolidin-3-yl]carbonyl}-3-methylpiperazin-1-yl]-3-cyclopentyl-1-oxopropan-2-yl) acetamide monohydrochloride]	7.85				11	
CC(=O)N[C@@H](CC(C)(C)C)C(=O)N1CCN(C(=O)[C@@H]2CN(C3CCOCC3)C[C@H]2c2ccc(Cl)cc2F)[C@@H](C)C1.Cl [Example 20, N-{(2S)-1-[(3S)-4-{[(3 S,4R)-4-(4-chloro-2-fluorophenyl)-1-(tetrahydro-2H-pyran-4-yl)pyrrolidin-3-yl]carbonyl}-3-methylpiperazin-1-yl]-4,4-dimethyl-1-oxopentan-2-yl}acetamide monohydrochloride]	7.64	5.92		5.10	40	8.12
